pKi: −log10 of the molar value.

This passage reports Ki results from patent US12121524B2, “DNA-PK inhibitors” (VERTEX PHARMACEUTICALS INCORPORATED, priority 2018, dated 2024).

The target in this assay is DNA-PK (Homo sapiens, UniProt P78527). As to the kind of experiment: DNA-PK inhibition assay (standard radiometric 33P-ATP kinase assay). The note with it: 100 μM ATP, approx. 6 nM DNA-PK. It is filed as biochemical. Here is the method:
Compounds were screened for their ability to inhibit DNA-PK kinase using a standard radiometric assay. Briefly, in this kinase assay the transfer of the terminal ^33P-phosphate in ^33P-ATP to a peptide substrate is interrogated. The assay was carried out in 384-well plates to a final volume of 50 μL per well containing approximately 6 nM DNA-PK, 50 mM HEPES (pH 7.5), 10 mM MgCl2, 25 mM NaCl, 0.01% BSA, 1 mM DTT, 10 μg/mL sheared double-stranded DNA (obtained from Sigma), 0.8 mg/mL DNA-PK peptide (Glu-Pro-Pro-Leu-Ser-Gln-Glu-Ala-Phe-Ala-Asp-Leu-Trp-Lys-Lys-Lys, obtained from American Peptide), and 100 μM ATP.
Accordingly, compounds of the invention were dissolved in DMSO to make 10 mM initial stock solutions. Serial dilutions in DMSO were then made to obtain the final solutions for the assay. A 0.75 μL aliquot of DMSO or inhibitor in DMSO was added to each well, followed by the addition of ATP substrate solution containing ^33P-ATP (obtained from Perkin Elmer). The reaction was started by the addition of DNA-PK, peptide and ds-DNA. After 45 min, the reaction was quenched with 25 μL of 5% phosphoric acid. The reaction mixture was transferred to MultiScreen HTS 384-well PH plates (obtained from Millipore), allowed to bind for one hour, and washed three times with 1% phosphoric acid. Following the addition of 50 μL of Ultima Gold™ high efficiency scintillant (obtained from Perkin Elmer), the samples were counted in a Packard TopCount NXT Microplate Scintillation and Luminescence Counter (Packard BioScience). The Ki values were calculated using Microsoft Excel Solver macros to fit the data to the kinetic model for competitive tight-binding inhibition.

The pKi is −log10 of the Ki, conventionally taken in molar units. As for `c1cnc(N[C@H]2CC[C@@H](Nc3cc(N4CCOCC4)cc4nccnc34)CC2)nc1` [Compound 18, N^1-(7-morpholinoquinoxalin-5-yl)-N^4-(pyrimidin-2-yl)cyclohexane-1,4-diamine], the pKi is greater than 7.00.

Regarding `c1cnc(N[C@H]2CC[C@@H](Nc3cc(N4CCOCC4)cc4nonc34)CC2)nc1` [Compound 23, (cis)-N^1-(6-morpholinobenzo[c][1,2,5]oxadiazol-4-yl)-N^4-(pyrimidin-2-yl)cyclohexane-1,4-diamine], the pKi is greater than 7.00.

For `c1ccc(N[C@H]2CC[C@@H](Nc3cc(N4CCOCC4)cc4nccnc34)CC2)nc1` [Compound 24], the pKi is greater than 7.00.

`c1cnc(N[C@H]2CC[C@@H](Nc3cc(N4CCOCC4)cc4nccnc34)CC2)cn1` [Compound 27] gave a pKi greater than 7.00.

Turning to `c1cnc(N[C@H]2CC[C@@H](Oc3cc(N4CCOCC4)cc4nccnc34)CC2)nc1` [Compound 28, N-((cis)-4-((7-morpholinoquinoxalin-5-yl)oxy)cyclohexyl)pyrimidin-2-amine], the pKi is greater than 7.00.

`O=C(O)c1cnc(N[C@H]2CC[C@@H](Nc3cc(N4CCOCC4)cc4nccnc34)CC2)nc1` [Compound 29] gave a negative-log Ki (pKi) greater than 7.00.

Compound `c1ncc(N[C@H]2CC[C@@H](Nc3cc(N4CCOCC4)cc4nccnc34)CC2)cn1` [Compound 30] showed a pKi greater than 7.00.

`COC(=O)c1cnc(N[C@H]2CC[C@@H](Nc3cc(N4CCOCC4)cc4nccnc34)CC2)cn1` [Compound 32]: the pKi was greater than 7.00.

Compound `c1cnc(N[C@H]2CC[C@@H](Oc3cc(N4CCOCC4)cc4nccnc34)CC2)cn1` [Compound 33] showed a pKi greater than 7.00.

In turn, `C1=C(c2cc(O[C@H]3CC[C@@H](Nc4ncccn4)CC3)c3nccnc3c2)CCOC1` [Compound 36, N-[(cis)-4-[7-(3,6-dihydro-2H-pyran-4-yl)quinoxalin-5-yl]oxycyclohexyl]pyrimidin-2-amine] gave a pKi greater than 7.00.

`Fc1cnc(N[C@H]2CC[C@@H](Oc3cc(N4CCOCC4)cc4nccnc34)CC2)nc1` [Compound 37] had a pKi greater than 7.00.

As to `Clc1cc(N[C@H]2CC[C@@H](Oc3cc(N4CCOCC4)cc4nccnc34)CC2)ncn1` [Compound 39], the pKi was greater than 7.00.

In the case of `N#Cc1cnc(N[C@H]2CC[C@@H](Oc3cc(N4CCOCC4)cc4nccnc34)CC2)nc1` [Compound 44], the pKi is greater than 7.00.

`Brc1cnc(N[C@H]2CC[C@@H](Oc3cc(N4CCOCC4)cc4nccnc34)CC2)nc1` [Compound 45] gave a pKi greater than 7.00.

With `c1cnc(O[C@H]2CC[C@@H](Nc3cc(N4CCOCC4)cc4nccnc34)CC2)nc1` [Compound 46], the pKi was greater than 7.00.

For the compound `Fc1ccnc(N[C@H]2CC[C@@H](Oc3cc(N4CCOCC4)cc4nccnc34)CC2)n1` [Compound 49], the pKi was greater than 7.00.

Consider `Fc1nccc(N[C@H]2CC[C@@H](Oc3cc(N4CCOCC4)cc4nccnc34)CC2)n1` [Compound 50], for which the pKi is greater than 7.00.

Compound `Fc1cc(N[C@H]2CC[C@@H](Oc3cc(N4CCOCC4)cc4nccnc34)CC2)ncn1` [Compound 51] showed a negative-log Ki (pKi) greater than 7.00.

As for `Cc1cc(C)nc(N[C@H]2CC[C@@H](Oc3cc(N4CCOCC4)cc4nccnc34)CC2)n1` [Compound 52], the pKi was greater than 7.00.

Consider `c1cnc(N[C@H]2CC[C@@H](Oc3cc(N4C[C@H]5CC[C@@H](C4)O5)cc4nccnc34)CC2)nc1` [Compound 53], for which the pKi was greater than 7.00.

In turn, `COc1cncc(N[C@H]2CC[C@@H](Oc3cc(N4CCOCC4)cc4nccnc34)CC2)n1` [Compound 54] showed a pKi greater than 7.00.

The compound `N#Cc1ccc(N[C@H]2CC[C@@H](Oc3cc(N4CCOCC4)cc4nccnc34)CC2)nn1` [Compound 55] had a pKi greater than 7.00.

In turn, `N#Cc1ccc(N[C@H]2CC[C@@H](Oc3cc(N4CCOCC4)cc4nccnc34)CC2)nc1` [Compound 59] showed a pKi greater than 7.00.

On to `Fc1ccc(N[C@H]2CC[C@@H](Oc3cc(N4CCOCC4)cc4nccnc34)CC2)nn1` [Compound 60], for which the pKi is greater than 7.00.

Turning to `O=C(N[C@H]1CC[C@@H](Oc2cc(N3CCOCC3)cc3nccnc23)CC1)C1CC1` [Compound 61], the pKi was greater than 7.00.

`CCCCc1cnc2cc(N3CCOCC3)cc(O[C@H]3CC[C@@H](Nc4ncccn4)CC3)c2n1` [Compound 63] gave a pKi greater than 7.00.

In turn, `CCCCc1cnc2cc(N3CCOCC3)cc(O[C@H]3CC[C@@H](Nc4ncc(Br)cn4)CC3)c2n1` [Compound 64] had a pKi greater than 7.00.

`NC(=O)c1cnc(N[C@H]2CC[C@@H](Oc3cc(N4CCOCC4)cc4nccnc34)CC2)nc1` [Compound 65] had a pKi greater than 7.00.

Regarding `CCOCCOc1cnc(N[C@H]2CC[C@@H](Oc3cc(N4CCOCC4)cc4nccnc34)CC2)nc1` [Compound 66], the pKi was greater than 7.00.

Regarding `CN(C)c1cnc(N[C@H]2CC[C@@H](Oc3cc(N4CCOCC4)cc4nccnc34)CC2)nc1` [Compound 67], the pKi is greater than 7.00.

`O=C(O)c1cnc(N[C@H]2CC[C@@H](Oc3cc(N4CCOCC4)cc4nccnc34)CC2)nc1` [Compound 69] gave a pKi greater than 7.00.

In the case of `CNC(=O)c1cnc(N[C@H]2CC[C@@H](Oc3cc(N4CCOCC4)cc4nccnc34)CC2)nc1` [Compound 71], the pKi was greater than 7.00.

As for `CN(C)C(=O)c1cnc(N[C@H]2CC[C@@H](Oc3cc(N4CCOCC4)cc4nccnc34)CC2)nc1` [Compound 72], the pKi is greater than 7.00.

On to `N#Cc1ccnc(N[C@H]2CC[C@@H](Oc3cc(N4CCOCC4)cc4nccnc34)CC2)c1` [Compound 84], for which the pKi is greater than 7.00.

`N#Cc1cccnc1N[C@H]1CC[C@@H](Oc2cc(N3CCOCC3)cc3nccnc23)CC1` [Compound 87]: the pKi was greater than 7.00.

`O=C(O)c1ccnc(N[C@H]2CC[C@@H](Oc3cc(N4CCOCC4)cc4nccnc34)CC2)n1` [Compound 93] gave a negative-log Ki (pKi) greater than 7.00.

Compound `OCc1cnc(N[C@H]2CC[C@@H](Oc3cc(N4CCOCC4)cc4nccnc34)CC2)nc1` [Compound 94] gave a pKi greater than 7.00.

Take `Fc1cc(F)nc(N[C@H]2CC[C@@H](Oc3cc(N4CCOCC4)cc4nccnc34)CC2)n1` [Compound 104]: the pKi was greater than 7.00.

On to `CN(C)C(=O)c1cnc(N[C@H]2CC[C@@H](Oc3cc(N4CCOCC4)cc4nccnc34)CC2)cn1` [Compound 108], for which the pKi was greater than 7.00.

Compound `c1cnc2c(O[C@H]3CC[C@@H](Nc4ncc(C5CC5)cn4)CC3)cc(N3CCOCC3)cc2n1` [Compound 109] showed a pKi greater than 7.00.

For `COc1cnc(N[C@H]2CC[C@@H](Oc3cc(N4CCOCC4)cc4nccnc34)CC2)nc1` [Compound 134, 5-methoxy-N-((cis)-4-((7-morpholinoquinoxalin-5-yl)oxy)cyclohexyl)pyrimidin-2-amine], the pKi is greater than 7.00.

For `CCOCCc1cnc(N[C@H]2CC[C@@H](Oc3cc(N4CCOCC4)cc4nccnc34)CC2)nc1` [Compound 135], the pKi was greater than 7.00.

As for `O=C(O)c1ccc(N[C@H]2CC[C@@H](Oc3cc(N4CCOCC4)cc4nccnc34)CC2)nc1` [Compound 139], the pKi was greater than 7.00.

As to `NC(=O)c1ccc(N[C@H]2CC[C@@H](Oc3cc(N4CCOCC4)cc4nccnc34)CC2)nc1` [Compound 140], the pKi is greater than 7.00.

Take `Cc1cnc(N[C@H]2CC[C@@H](Oc3cc(N4CCOCC4)cc4nccnc34)CC2)nc1` [Compound 142]: the pKi was greater than 7.00.

In the case of `Nc1cnc(N[C@H]2CC[C@@H](Oc3cc(N4CCOCC4)cc4nccnc34)CC2)nc1` [Compound 143], the pKi is greater than 7.00.

In turn, `CNC(=O)c1ccc(N[C@H]2CC[C@@H](Oc3cc(N4CCOCC4)cc4nccnc34)CC2)nc1` [Compound 144] gave a pKi greater than 7.00.

On to `CN(C)C(=O)c1ccc(N[C@H]2CC[C@@H](Oc3cc(N4CCOCC4)cc4nccnc34)CC2)nc1` [Compound 145], for which the pKi is greater than 7.00.

As for `COC(=O)c1ccc(N[C@H]2CC[C@@H](Oc3cc(N4CCOCC4)cc4nccnc34)CC2)nc1` [Compound 146], the pKi was greater than 7.00.

Regarding `CCN(CC)c1cnc(N[C@H]2CC[C@@H](Oc3cc(N4CCOCC4)cc4nccnc34)CC2)nc1` [Compound 155], the pKi was greater than 7.00.

Take `Oc1cnc(N[C@H]2CC[C@@H](Oc3cc(N4CCOCC4)cc4nccnc34)CC2)nc1` [Compound 158]: the pKi is greater than 7.00.

For the compound `OCc1ccc(N[C@H]2CC[C@@H](Oc3cc(N4CCOCC4)cc4nccnc34)CC2)nc1` [Compound 160], the pKi is greater than 7.00.

Turning to `COCc1cnc(N[C@H]2CC[C@@H](Oc3cc(N4CCOCC4)cc4nccnc34)CC2)nc1` [Compound 161], the pKi is greater than 7.00.

Turning to `CC(C)NC(=O)c1cnc(N[C@H]2CC[C@@H](Oc3cc(N4CCOCC4)cc4nccnc34)CC2)nc1` [Compound 162], the negative-log Ki (pKi) is greater than 7.00.

As to `Brc1ccc(N[C@H]2CC[C@@H](Oc3cc(N4CCOCC4)cc4nccnc34)CC2)nc1` [Compound 164], the pKi is greater than 7.00.

`OC1CCN(c2ccnc(N[C@H]3CC[C@@H](Oc4cc(N5CCOCC5)cc5nccnc45)CC3)n2)C1` (stereo partly drawn) [Compound 187] had a pKi greater than 7.00.

In turn, `FC(F)(F)c1ccc(N[C@H]2CC[C@@H](Oc3cc(N4CCOCC4)cc4nccnc34)CC2)nc1` [Compound 189] gave a pKi greater than 7.00.
